# Read-outs that look alike come from different tables or passages of the source.
# Experiments:
# [1] = system: HCT-116 colon cancer cell; test: MTT cell viability assay, HCT-116 colon cancer cell; type: cell-based; settings: Homo sapiens
# Protocol: (§1) Cell viability was evaluated by measuring the reduction in MTT to yield blue formazan. Cells were cultured in 96-well plates, allowed to attach overnight, and then treated with compounds. After treatment, MTT solution (1 mg/ml) was added to each well, and plates were incubated for another 4 h. Medium were removed, blue formazan was dissolved in DMSO, and the absorbance was read at 570 nm^20.
# MDA-MB-468 = test: Cell viability, MDA-MB-468 breast cancer cells; type: cell-based; settings: Homo sapiens; MDA-MB-468 (Triple negative), treated for 24 h
# Protocol: as §1
smiles,measurement,setting,value
"COc1cc(/C=C/C(=O)/C=C(O)/C=C/c2ccc(OC(=O)C(C)(CO)CO)c(OC)c2)ccc1OC(=O)C(C)(CO)CO [Compound 21a, ((1E,3Z,6E)-3-Hydroxy-5-oxohepta-1,3,6-triene-1,7-diyl)bis(2-methoxy-4,1-phenylene) bis(3-hydroxy-2-(hydroxymethyl)-2-methylpropenoate)]",IC50,"[1]; HCT-116, treated 24 hours, read-out: IC50 24 hours",10.5 ± 1.03 µM
same,IC50,"[1]; HCT-116, treated 48 hours, read-out: IC50 48 hours",6.25 ± 0.596 µM
same,IC50,"[1]; HCT-116, treated 72 hours, read-out: IC50 72 hours",3.91 ± 0.27 µM
same,IC50,MDA-MB-468,6.13 ± 0.51 µM
